Structures are written as SMILES. The source made the active and inactive calls. The rule behind the calls is not given here.

Results on three molecules are retold here after ChEMBL document CHEMBL5236589, “Design and Structural Optimization of Orally Bioavailable SOS1 Inhibitors for the Treatment of KRAS-Driven Carcinoma” (J Med Chem, 2022).

Data set [1] has as its target SOS1-KRAS (Homo sapiens, UniProt Q07889). In words: Inhibition of human recombinant SOS1 (residue 564-1049)/KRAS G12C mutant protein-protein interaction at incubated for 25 degC for 60 mins by homogeneous time-resolved fluorescence (HTRF) method.
A short description of data set [2]: Inhibition of SOS1/KRAS G13D mutant protein-protein interaction in human DLD-1 cells assessed as ERK1/2 phosphorylation measured after 1 hr by homogeneous time-resolved fluorescence (HTRF) method. The data set is classed as cell-based. Conditions: DLD-1, 1 h. On the technique in general: In TR-FRET formats the signal depends on donor and acceptor labels being close together.

The test system of data set [3] is NCI-H358. In words: Antiproliferative activity against human NCI-H358 cells harboring SOS1/KRAS G12C mutant measured after 24 hrs by AlamarBlue based 3-D proliferation assay. Format: functional, cell-based.
Data set [4] is described as follows: Half life in ICR mouse at 10 mg/kg, po by LC-MS/MS analysis. The data set is classed as ADME, organism-based. Conditions: in vivo.
A short description of data set [5]: Tmax in ICR mouse at 10 mg/kg, po by LC-MS/MS analysis. The data set is classed as ADME, organism-based. To be noted: in vivo.
Data set [6] in a line: Cmax in ICR mouse at 10 mg/kg, po by LC-MS/MS analysis. The data set is classed as ADME, organism-based. Details: dose 10 mg/kg, route po. To be noted: in vivo.
A short description of data set [7]: AUC in ICR mouse at 10 mg/kg, po by LC-MS/MS analysis. Details: dose 10 mg/kg, route po. Conditions: in vivo. The data set is classed as ADME, organism-based.
Data set [8] in a line: MRT in ICR mouse at 10 mg/kg, po by LC-MS/MS analysis. Format: ADME, organism-based. Conditions: in vivo.
Data set [9] can be described thus: Elimination rate constant in ICR mouse at 10 mg/kg, po by LC-MS/MS analysis. Format: ADME, organism-based. Conditions: in vivo.
The test system of data set [10] is MIA PaCa-2. In words: In vivo antitumor activity against human MIA PaCa-2 cells harboring KRAS G12C mutant xenografted in BALB/c mouse assessed as tumor growth inhibition at 50 mg/kg, po once a day measured for 16 days relative to control. Format: functional. To be noted: MIA PaCa-2, 384 h, time 16 day, read-out: TGI. (In general: Xenograft models place foreign cells or tissue in a host animal.)

Data set [11] in a line: Toxicity in BALB/c mouse xenografted with human MIA PaCa-2 cells harboring KRAS G12C mutant assessed as change in body weight at 50 mg/kg, po once a day measured for 16 days. The data set is classed as organism-based. Conditions: in vivo, 384 h, time 16 day.
Data set [12] in a line: Half life in ICR mouse at 20 mg/kg, po by LC-MS/MS analysis. To be noted: in vivo; for half-life: ICR. Format: ADME, organism-based.
Data set [13] is described as follows: Tmax in ICR mouse at 20 mg/kg, po by LC-MS/MS analysis. Conditions: in vivo. Format: ADME, organism-based.
A short description of data set [14]: Cmax in ICR mouse at 20 mg/kg, po by LC-MS/MS analysis. The data set is classed as ADME, organism-based. Details: dose 20 mg/kg, route po. To be noted: in vivo.
A short description of data set [15]: AUC in ICR mouse at 20 mg/kg, po by LC-MS/MS analysis. Details: dose 20 mg/kg, route po. The data set is classed as ADME, organism-based. Conditions: in vivo.
The nature of data set [16]: MRT in ICR mouse at 20 mg/kg, po by LC-MS/MS analysis. The data set is classed as ADME, organism-based. To be noted: in vivo.
Data set [17] in a line: Elimination rate constant in ICR mouse at 20 mg/kg, po by LC-MS/MS analysis. Format: ADME, organism-based. To be noted: in vivo; for k el: ICR.
Data set [18] deals with MIA PaCa-2. In words: In vivo antitumor activity against human MIA PaCa-2 cells harboring KRAS G12C mutant xenografted in BALB/c mouse assessed as reduction in tumor volume at 50 mg/kg, po once a day measured for 16 days relative to control. Format: functional. Details: scale not given: the % may be the effect or the level left. To be noted: time 16 day.
Data set [19] can be described thus: Toxicity in BALB/c mouse xenografted with human MIA PaCa-2 cells harboring KRAS G12C mutant assessed as mortality at 50 mg/kg, po once a day measured for 16 days. Format: organism-based. Conditions: in vivo, 384 h, time 16 day.
Data set [20] can be described thus: Metabolic stability in mouse liver microsomes assessed as half life in presence of NADPH by LC-MS/MS analysis. The data set is classed as ADME, Microsome. Background: Liver microsomes are vesicles of endoplasmic reticulum, rich in cytochrome P450 enzymes.
Data set [21] in a line: Metabolic stability in mouse liver microsomes assessed as intrinsic clearance in presence of NADPH measured upto 60 mins by LC-MS/MS analysis. Format: ADME, Microsome. To be noted: read-out: CLH.
The nature of data set [22]: Metabolic stability in rat liver microsomes assessed as half life in presence of NADPH by LC-MS/MS analysis. Format: ADME, Microsome.
Data set [23] can be described thus: Metabolic stability in rat liver microsomes assessed as intrinsic clearance in presence of NADPH measured upto 60 mins by LC-MS/MS analysis. Format: ADME, Microsome. Conditions: read-out: CLH.
Data set [24] has as its system MIA PaCa-2. In words: Antiproliferative activity against human MIA PaCa-2 cells assessed as cell viability measured after 72 hrs by MTT assay. The data set is classed as functional, cell-based. To be noted: MIA PaCa-2, 72 h.
Data set [25] concerns MIA PaCa-2. In words: In vivo antitumor activity against human MIA PaCa-2 cells harboring KRAS G12C mutant xenografted in BALB/c mouse assessed as reduction in tumor volume at 50 mg/kg, po once a day measured for 16 days relative to BI-3406. Format: functional. Details: scale not given: the % may be the effect or the level left. Conditions: time 16 day.

Sequence of SOS1-KRAS (Q07889 whole entry, looked up, stated change not applied): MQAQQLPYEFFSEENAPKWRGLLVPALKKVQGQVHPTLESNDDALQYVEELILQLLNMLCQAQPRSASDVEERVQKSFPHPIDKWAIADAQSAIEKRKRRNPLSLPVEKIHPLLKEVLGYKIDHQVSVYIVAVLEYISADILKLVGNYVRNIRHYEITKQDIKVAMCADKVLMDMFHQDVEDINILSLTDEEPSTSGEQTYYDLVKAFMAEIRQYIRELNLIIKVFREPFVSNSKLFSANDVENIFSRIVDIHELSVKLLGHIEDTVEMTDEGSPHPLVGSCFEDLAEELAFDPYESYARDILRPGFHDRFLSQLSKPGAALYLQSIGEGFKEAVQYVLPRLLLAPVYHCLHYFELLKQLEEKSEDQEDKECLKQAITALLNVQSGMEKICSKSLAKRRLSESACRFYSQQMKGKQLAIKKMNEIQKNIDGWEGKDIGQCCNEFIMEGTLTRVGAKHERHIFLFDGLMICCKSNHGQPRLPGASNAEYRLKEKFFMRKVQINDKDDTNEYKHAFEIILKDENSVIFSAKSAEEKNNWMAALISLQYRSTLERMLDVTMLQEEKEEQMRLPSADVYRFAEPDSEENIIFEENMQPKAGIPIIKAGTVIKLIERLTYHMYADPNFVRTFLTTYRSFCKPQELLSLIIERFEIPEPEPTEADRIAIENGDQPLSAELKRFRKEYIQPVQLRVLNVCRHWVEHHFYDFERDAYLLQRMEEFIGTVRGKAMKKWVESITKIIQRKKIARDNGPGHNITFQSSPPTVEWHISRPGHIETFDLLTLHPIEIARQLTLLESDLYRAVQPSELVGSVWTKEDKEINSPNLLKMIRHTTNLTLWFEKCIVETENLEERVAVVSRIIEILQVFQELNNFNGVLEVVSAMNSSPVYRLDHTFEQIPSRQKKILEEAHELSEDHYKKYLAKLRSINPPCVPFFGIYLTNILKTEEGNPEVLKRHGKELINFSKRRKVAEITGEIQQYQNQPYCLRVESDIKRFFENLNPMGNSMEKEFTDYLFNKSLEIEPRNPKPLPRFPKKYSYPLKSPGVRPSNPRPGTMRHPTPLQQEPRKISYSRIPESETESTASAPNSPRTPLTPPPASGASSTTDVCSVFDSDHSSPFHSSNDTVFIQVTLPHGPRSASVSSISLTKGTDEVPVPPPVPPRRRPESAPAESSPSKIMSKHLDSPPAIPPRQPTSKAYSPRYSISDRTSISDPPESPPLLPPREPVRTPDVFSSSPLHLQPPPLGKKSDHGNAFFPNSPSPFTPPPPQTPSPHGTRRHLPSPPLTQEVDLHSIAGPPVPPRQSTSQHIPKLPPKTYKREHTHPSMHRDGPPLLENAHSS

As for `CC(=O)N1CCN2c3cc4c(N[C@H](C)c5cccc(C(F)F)c5F)nc(C)nc4cc3OC[C@H]2C1`, the results for the IC50 in data set [1] and in data set [2] were 6.3 nM and 2.4 nM, respectively. For the same molecule, in data set [3], the result was Active. Also, the half-life (in general, the time in which the quantity being followed falls by half) in [4] was 1.87 h; in data set [12] it was 2.14 h. In addition, the Tmax (usually the time at which the peak concentration occurs) is 0.33 h in [5] and 0.25 h in [13]. For the same molecule, the Cmax (as a rule, the maximum level reached in the sampled fluid or tissue) was found to be 0.0634 µg/mL in [6] and 0.27 µg/mL in data set [14]. In addition, the values for the AUC in data set [7] and in data set [15] were 0.148 µg·h/mL and 0.601 µg·h/mL, respectively. The MRT (in general, the average time that molecules of a dose stay in the body) in data set [8] worked out at 1.9 h; in data set [16] it was 1.93 h. In addition, the k el was 0.000103 s⁻¹ in data set [9] and 0.000119 s⁻¹ in data set [17]. In [10], the inhibition in vivo at 50 mg/kg was 42%. In data set [11], the Activity result is “Non-Toxic”.

Take `COc1cc2nc(C)nc(N[C@H](C)c3cc(N)cc(C(F)(F)F)c3)c2cc1O[C@H]1CCOC1`: in data set [2], the IC50 (usually the concentration that inhibits the measured activity by half) is 30.7 nM. In addition, the half-life was 1.3 h in [4], 0.18 h in data set [20], 4.48 h in data set [12] and 0.602 h in [22]. Besides, the Tmax in data set [5] is 0.5 h; in data set [13] it was 0.9 h. For the same molecule, the Cmax in data set [6] worked out at 0.241 µg/mL; in [14] it was 1.05 µg/mL. Moreover, the AUC – broadly, the area under the concentration-time curve, a measure of exposure – in data set [7] came out at 0.55 µg·h/mL; in data set [15], 4.68 µg·h/mL. Also, the MRT turned out to be 1.7 h in data set [8] and 2.98 h in data set [16]. For the same molecule, the k el in [9] was 0.000147 s⁻¹; in [17], 5.83e-05 s⁻¹. The Activity entry in data set [11] was “Non-Toxic”; in data set [18], 42%; in data set [19], “Non-Toxic”. Also, the results for the CLint scaled in [21] and in [23] were 30.2 L/h/kg and 4.17 L/h/kg, respectively.

For `Cc1nc(N[C@H](C)c2cccc(C(F)F)c2F)c2cc3c(cc2n1)OC[C@H]1CN(C(=O)[C@H]2CCOC2)CCN31`, the IC50 in [2] was 5 nM; in data set [24], 178 nM. The Activity entry in [11] is listed as “Non-Toxic”; in [25] it was 71%; in data set [18] it was 49%; in data set [19], “Non-Toxic”. The half-life is 0.437 h in data set [20] and 1.12 h in data set [22]. Further, the CLint scaled in data set [21] amounted to 12.5 L/h/kg; in data set [23] it was 2.23 L/h/kg. In data set [12] (po, 20 mg/kg), this molecule yielded a t1/2 of 11.4 h. Further, the Tmax in data set [13] was found to be 3.67 h. Moreover, the Cmax in data set [14] was 1.55 µg/mL. Further, in data set [15], the AUC is 9.9 µg·h/mL. For the same molecule, the MRT in data set [16] came out at 4.19 h. The molecule further had a Kel in [17] (po, 20 mg/kg) of 0.25 h⁻¹.
